The results in this text go back to patent US20080038290A1, “Cosmetic slimming composition containing an extract of biomass of the alga neochloris oleoabundans” (LVMH RECHERCHE, priority 2006, published 2008).

“Also recorded” adds a separate entry of the source.

This experiment deals with explants of adipose tissues. Nature of the experiment: Assay of lipolytic activity: free fatty acids released into the culture medium from adipose tissue explants kept alive. Particulars: caffeine at a concentration of 0.01% (100 μg/ml). The format is cell-based.

Experimental: The different extracts are incorporated into the culture medium under the conditions described below.
After a contact time of 8 days, the activity is evaluated by assaying the fatty acids released into the culture medium.
Preparation of 9 explants of adipose tissues and keeping them alive in BEM (BIO-EC's Explants Medium)
Division of the explants into 3 batches of 3 explants: • a reference batch, in the presence of the culture medium • a batch treated with caffeine as a positive reference • a batch treated with an extract according to the invention
At D0 the explants are kept alive in 2 ml of culture medium in which the test extract is incorporated.
This treatment is repeated at D2, D4 and D6.
At D2, D4, D6 and D8 the culture medium is sampled. For each explant the media sampled at D2, D4, D6 and D8 are combined in the same tube and stored at −20° C. for assaying the fatty acids present in the medium.
After extraction of the culture medium, the free fatty acids present therein are separated off and assayed by high performance thin layer chromatography.
The lipolytic activity is evaluated by determining the proportions of free fatty acids released into the culture medium.

For the compound `Cn1c(=O)c2c(ncn2C)n(C)c1=O` [Caffeine, caffeine], the lipolytic effect result was “no longer having a lipolytic effect; also recorded: no longer active”.
